According to patent publication US11084800B2 (Achillion Pharmaceuticals, Inc., priority 2017, dated 2021):

target: Human Factor D (Homo sapiens (Human), UniProt P00746); experiment: Human Factor D Assay; type: biochemical; conditions: not given
Summary of the method: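 Serum-purified Factor D (80 nM final) preincubated 5 min at room temperature with compound in 50 mM Tris, 1 M NaCl, pH 7.5. Z-L-Lys-SBz and DTNB added at 100 μM each; A405 followed every 30 s for 30 min. IC50 from nonlinear regression of rates versus concentration.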

Sequence of Human Factor D (P00746 26-253): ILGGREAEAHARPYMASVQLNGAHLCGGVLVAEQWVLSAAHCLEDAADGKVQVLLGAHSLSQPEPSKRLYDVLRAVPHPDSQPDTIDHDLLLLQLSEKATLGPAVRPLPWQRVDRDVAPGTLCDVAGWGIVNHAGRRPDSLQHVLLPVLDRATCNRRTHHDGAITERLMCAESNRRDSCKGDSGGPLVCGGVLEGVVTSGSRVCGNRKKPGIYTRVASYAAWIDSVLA

| SMILES | IC50 [nM] |
| --- | --- |
| CC(=O)c1nn(CC(=O)N2[C@H](C(=O)NC(Cc3ccccc3)Cc3ccccc3)C[C@@]3(C)C[C@@H]23)c2c(C)cc(-c3cnc(C)nc3)cc12 [Compound 505, (1R,3S,5R)-2-(2-(3-Acetyl-7-methyl-5-(2-methylpyrimidin-5-yl)-1H-indazol-1-yl)acetyl)-N-(1,3-diphenylpropan-2-yl)-5-methyl-2-azabicyclo[3.1.0]hexane-3-carboxamide] | 1000 to 10000 |

same assay, conditions: Factor D inhibition, assay of Example 10; read-out: IC5 (Stars)

| SMILES | IC50 [nM] |
| --- | --- |
| CC(=O)c1nn(CC(=O)N2[C@H](C(=O)Nc3cc(C)cc(Br)n3)C[C@@]3(C)C[C@@H]23)c2ccc(-c3cnc(C)nc3)cc12 [Compound 492, (1R,3S,5R)-2-(2-(3-acetyl-5-(2-methylpyrimidin-5-yl)-1H-indazol-1-yl)acetyl)-N-(6-bromo-4-methylpyridin-2-yl)-5-methyl-2-azabicyclo[3.1.0]hexane-3-carboxamide] | < 1000 |
| CC(=O)c1nn(CC(=O)N2[C@H](C(=O)Nc3cc(C(=O)O)cc(Br)n3)C[C@@]3(C)C[C@@H]23)c2ccc(-c3cnc(C)nc3)cc12 [Compound 493, 2-[(1R,3S,5R)-2-{2-[3-Acetyl-5-(2-methylpyrimidin-5-yl)indazol-1-yl]acetyl}-5-methyl-2-azabicyclo[3.1.0]hexane-3-amido]-6-bromopyridine-4-carboxylic Acid] | < 1000 |
| COc1cc(-c2cnc(C)nc2)cc2c(C(C)=O)nn(CC(=O)N3[C@H](C(=O)Nc4nc(Br)ccc4C)C[C@@]4(C)C[C@@H]34)c12 [Compound 494, (1R,3S,5R)-2-(2-(3-acetyl-7-methoxy-5-(2-methylpyrimidin-5-yl)-1H-indazol-1-yl)acetyl)-N-(6-bromo-3-methylpyridin-2-yl)-5-methyl-2-azabicyclo[3.1.0]hexane-3-carboxamide] | < 1000 |
| CC(=O)c1nn(CC(=O)N2[C@H](C(=O)NCC(=O)O)C[C@@]3(C)C[C@@H]23)c2c(C)cc(-c3cnc(C)nc3)cc12 [Compound 495, ((1R,3S,5R)-2-(2-(3-acetyl-7-methyl-5-(2-methylpyrimidin-5-yl)-1H-indazol-1-yl)acetyl)-5-methyl-2-azabicyclo[3.1.0]hexane-3-carbonyl)glycine] | 1000 to 10000 |
| CC(=O)c1nn(CC(=O)N2[C@H](C(=O)NCCC(=O)O)C[C@@]3(C)C[C@@H]23)c2c(C)cc(-c3cnc(C)nc3)cc12 [Compound 497, 3-((1R,3S,5R)-2-(2-(3-acetyl-7-methyl-5-(2-methylpyrimidin-5-yl)-1H-indazol-1-yl)acetyl)-5-methyl-2-azabicyclo[3.1.0]hexane-3-carboxamido)propanoic acid] | < 1000 |
| CC(=O)c1nn(CC(=O)N2[C@H](C(=O)NCCCC(=O)O)C[C@@]3(C)C[C@@H]23)c2c(C)cc(-c3cnc(C)nc3)cc12 [Compound 498, 4-((1R,3S,5R)-2-(2-(3-acetyl-7-methyl-5-(2-methylpyrimidin-5-yl)-1H-indazol-1-yl)acetyl)-5-methyl-2-azabicyclo[3.1.0]hexane-3-carboxamido)butanoic acid] | < 1000 |
| CC(=O)c1nn(CC(=O)N2[C@H](C(=O)NC(C)(C)c3cccc(Cl)c3F)C[C@@]3(C)C[C@@H]23)c2c(C)cc(-c3cnc(C)nc3)cc12 [Compound 502, (1R,3S,5R)-2-(2-(3-acetyl-7-methyl-5-(2-methylpyrimidin-5-yl)-1H-indazol-1-yl)acetyl)-N-(2-(3-chloro-2-fluorophenyl)propan-2-yl)-5-methyl-2-azabicyclo[3.1.0]hexane-3-carboxamide] | < 1000 |
| CC(=O)c1nn(CC(=O)N2[C@H](C(=O)Nc3cc(C(N)=O)cc(Br)n3)C[C@@]3(C)C[C@@H]23)c2ccc(-c3cnc(C)nc3)cc12 [Compound 503, (1R,3S,5R)-2-(2-(3-acetyl-5-(2-methylpyrimidin-5-yl)-1H-indazol-1-yl)acetyl)-N-(6-bromo-4-carbamoylpyridin-2-yl)-5-methyl-2-azabicyclo[3.1.0]hexane-3-carboxamide] | < 1000 |
| CC(=O)c1nn(CC(=O)N2[C@H](C(=O)Nc3cc(OCc4ccccc4)cc(Br)n3)C[C@@]3(C)C[C@@H]23)c2ccc(-c3cnc(C)nc3)cc12 [Compound 504, (1R,3S,5R)-2-(2-(3-acetyl-5-(2-methylpyrimidin-5-yl)-1H-indazol-1-yl)acetyl)-N-(4-(benzyloxy)-6-bromopyridin-2-yl)-5-methyl-2-azabicyclo[3.1.0]hexane-3-carboxamide] | < 1000 |
| CNC(=O)[C@@H]1C[C@@]2(C)C[C@H]2N1C(=O)Cn1nc(C(C)=O)c2cc(-c3cnc(C)nc3)cc(C)c21 [Compound 513, (1R,3S,5R)-2-(2-(3-acetyl-7-methyl-5-(2-methylpyrimidin-5-yl)-1H-indazol-1-yl)acetyl)-N,5-dimethyl-2-azabicyclo[3.1.0]hexane-3-carboxamide] | < 1000 |
| CC(=O)c1nn(CC(=O)N2[C@H](C(=O)Nc3cc(CC(=O)O)cc(Br)n3)C[C@@]3(C)C[C@@H]23)c2ccc(-c3cnc(C)nc3)cc12 [Compound 514, 2-(2-((1R,3S,5R)-2-(2-(3-acetyl-5-(2-methylpyrimidin-5-yl)-1H-indazol-1-yl)acetyl)-5-methyl-2-azabicyclo[3.1.0]hexane-3-carboxamido)-6-bromopyridin-4-yl)acetic Acid] | < 1000 |
| CCCc1cc(Br)nc(NC(=O)[C@@H]2C[C@@]3(C)C[C@H]3N2C(=O)Cn2nc(C(C)=O)c3cc(-c4cnc(C)nc4)ccc32)c1 [Compound 516, (1R,3S,5R)-2-(2-(3-Acetyl-5-(2-methylpyrimidin-5-yl)-1H-indazol-1-yl)acetyl)-N-(6-bromo-4-propylpyridin-2-yl)-5-methyl-2-azabicyclo[3.1.0]hexane-3-carboxamide] | 1000 to 10000 |
| CC(=O)c1nn(CC(=O)N2[C@H](C(=O)NC(CC(C)C)CC(C)C)C[C@@]3(C)C[C@@H]23)c2c(C)cc(-c3cnc(C)nc3)cc12 [Compound 517, (1R,3S,5R)-2-(2-(3-acetyl-7-methyl-5-(2-methylpyrimidin-5-yl)-1H-indazol-1-yl)acetyl)-N-(2,6-dimethylheptan-4-yl)-5-methyl-2-azabicyclo[3.1.0]hexane-3-carboxamide] | < 1000 |
| CNCCCNC(=O)[C@@H]1C[C@@]2(C)C[C@H]2N1C(=O)Cn1nc(C(C)=O)c2cc(-c3cnc(C)nc3)ccc21 [Compound 519, (1R,3S,5R)-2-(2-(3-acetyl-5-(2-methylpyrimidin-5-yl)-1H-indazol-1-yl)acetyl)-5-methyl-N-(3-(methylamino)propyl)-2-azabicyclo[3.1.0]hexane-3-carboxamide] | 1000 to 10000 |
| CC(=O)c1nn(CC(=O)N2[C@H](C(=O)NCCCN(C)C)C[C@@]3(C)C[C@@H]23)c2ccc(-c3cnc(C)nc3)cc12 [Compound 520, (1R,3S,5R)-2-(2-(3-acetyl-5-(2-methylpyrimidin-5-yl)-1H-indazol-1-yl)acetyl)-N-(3-(dimethylamino)propyl)-5-methyl-2-azabicyclo[3.1.0]hexane-3-carboxamide] | 1000 to 10000 |
| CC(=O)c1nn(CC(=O)N2[C@H](C(=O)Nc3nc(Br)ccc3C)C[C@@]3(C)C[C@@H]23)c2c(CO)cc(-c3cnc(C)nc3)cc12 [Compound 526, (1R,3S,5R)-2-(2-(3-Acetyl-7-(hydroxymethyl)-5-(2-methylpyrimidin-5-yl)-1H-indazol-1-yl)acetyl)-N-(6-bromo-3-methylpyridin-2-yl)-5-methyl-2-azabicyclo[3.1.0]hexane-3-carboxamide] | < 1000 |

same assay, conditions: Table 8; Factor D 80 nM, substrate Z-L-Lys-SBz; read-out: IC50

| SMILES | IC50 [nM] |
| --- | --- |
| CNCCNC(=O)c1nn(CC(=O)N2[C@H](C(=O)Nc3nc(Br)ccc3C)C[C@@]3(C)C[C@@H]23)c2ccc(-c3cnc(C)nc3)cc12 [Compound 490, 1-(2-((1R,3S,5R)-3-((6-bromo-3-methylpyridin-2-yl)carbamoyl)-5-methyl-2-azabicyclo[3.1.0]hexan-2-yl)-2-oxoethyl)-N-(2-(methylamino)ethyl)-5-(2-methylpyrimidin-5-yl)-1H-indazole-3-carboxamide] | 1000 to 10000 |
| Cc1ncc(-c2ccc3c(c2)c(C(=O)NCCN(C)C)nn3CC(=O)N2[C@H](C(=O)Nc3nc(Br)ccc3C)C[C@@]3(C)C[C@@H]23)cn1 [Compound 491, 1-(2-((1R,3S,5R)-3-((6-bromo-3-methylpyridin-2-yl)carbamoyl)-5-methyl-2-azabicyclo[3.1.0]hexan-2-yl)-2-oxoethyl)-N-(2-(dimethylamino)ethyl)-5-(2-methylpyrimidin-5-yl)-1H-indazole-3-carboxamide] | > 10000 |
| Cc1ncc(-c2ccc3c(c2)c(C(=O)NCC(F)(F)F)nn3CC(=O)N2[C@H](C(=O)Nc3nc(Br)ccc3C)C[C@@]3(C)C[C@@H]23)cn1 [Compound 499, 1-(2-((1R,3S,5R)-3-((6-bromo-3-methylpyridin-2-yl)carbamoyl)-5-methyl-2-azabicyclo[3.1.0]hexan-2-yl)-2-oxoethyl)-5-(2-methylpyrimidin-5-yl)-N-(2,2,2-trifluoroethyl)-1H-indazole-3-carboxamide] | < 1000 |
| Cc1ncc(-c2ccc3c(c2)c(C(=O)NCC(C)C)nn3CC(=O)N2[C@H](C(=O)Nc3nc(Br)ccc3C)C[C@@]3(C)C[C@@H]23)cn1 [Compound 500, 1-(2-((1R,3S,5R)-3-((6-bromo-3-methylpyridin-2-yl)carbamoyl)-5-methyl-2-azabicyclo[3.1.0]hexan-2-yl)-2-oxoethyl)-N-isobutyl-5-(2-methylpyrimidin-5-yl)-1H-indazole-3-carboxamide] | < 1000 |
| Cc1ncc(-c2cc(C#N)c3c(c2)c(C(N)=O)nn3CC(=O)N2[C@H](C(=O)Nc3nc(Br)ccc3C)C[C@@]3(C)C[C@@H]23)cn1 [Compound 515] | < 1000 |
| CCCCCCCNC(=O)[C@@H]1C[C@@]2(C)C[C@H]2N1C(=O)Cn1nc(C(C)=O)c2cc(-c3cnc(C)nc3)cc(C)c21 [Compound 527, (1R,3S,5R)-2-(2-(3-acetyl-7-methyl-5-(2-methylpyrimidin-5-yl)-1H-indazol-1-yl)acetyl)-N-heptyl-5-methyl-2-azabicyclo[3.1.0]hexane-3-carboxamide] | < 1000 |
